Experiments:
Assay type in all cases: biochemical
Settings in all cases: recombinant enzyme, 37° C. for 2 hours
EGFR A763_Y764insFHEA = EGFR A763_Y764insFHEA (Homo sapiens (Human), UniProt P00533, INS763FHEA); test: HTRF inhibitory activity against EGFR mutant enzyme (EGFR A763_Y764insFHEA)
Experimental: (§1) The activity of the compounds of the present invention against EGFR mutant enzymes was measured using the HTRF system purchased from Cisbio as follows. For an EGFR mutant enzyme, the EGFR del19 enzyme was a recombinant protein purchased from Carna Biosciences, and the EGFR A763_Y764insFHEA enzyme was a recombinant protein purchased from SignalChem, respectively.
(§2) The composition of the assay buffer used for activity measurement was 50 mM tris-HCl pH 7.5, 100 mM NaCl, 7.5 mM MgCl2, 3 mM KCl, 0.01% tween 20, 0.1% BSA, and 1 mM DTT. An enzymatic reaction was performed using a peptide substrate labeled with ATP at a concentration of […] and biotin at a concentration of […]. The analysis of the inhibitory effect of the compounds on EGFR activity was performed according to the following method. • Component 1:4 μL of EGFR mutant enzyme • Component 2:2 μL of compound solution • Component 3:4 μL of ATP and a biotin labeled peptide
(§3) The enzyme reaction begins by first mixing component 1 and component 2 and then adding component 3 thereto. After the reaction at 37° C. for 2 hours, […] of a measurement solution consisting of streptavidin-XL665 and a europium-labeled anti-phosphotyrosine antibody purchased from Cisbio was added to the enzyme reaction solution and reacted at room temperature for 1 hour. Finally, the ratio of fluorescence values at 615 nm and 665 nm was measured using Perkin-Elmer's Envision instrument to calculate enzyme activity and confirm the inhibitory ability of the compounds. The measured values at 7 compound concentrations were analyzed using the Prism program (version 5.01, Graphpad Software, Inc.), and the IC50 (μM) values, which are measures of the compounds' inhibitory activity, were calculated.

EGFR del19 = EGFR del19 (Homo sapiens (Human), UniProt P00533, DEL746-750); test: HTRF inhibitory activity against EGFR mutant enzyme (EGFR del19)
Experimental: as §1, §2, §3

HER2 A775_G776insYVMA = HER2 A775_G776insYVMA (Homo sapiens (Human), UniProt P04626, INS775YVMA); test: HTRF inhibitory activity against HER2 mutant enzyme
Experimental: The activity of the compounds of the present invention against HER mutant enzymes was measured using the HTRF system purchased by Cisbio as follows. As a HER2 mutant enzyme, the HER2 A775_G776insYVMA mutant enzyme was used by purchasing a recombinant protein provided by Carna Biosciences.
as §2, with “mM DTT. In addition thereto, the enzymatic reaction” for “mM DTT. An enzymatic reaction”, “of the activity inhibitory effect” for “of the inhibitory effect”, “compounds on HER2 A775_G776insYVMA mutation was performed” for “compounds on EGFR activity was performed”, “μL of HER2 A775_G776insYVMA mutant enzyme” for “μL of EGFR mutant enzyme”
as §3, with “Finally, the ratio of fluorescence values at 615 nm and 665 nm was measured using Perkin-Elmer's Envision instrument to calculate enzyme activity and confirm the inhibitory ability of the compounds.” left out, “ability,” for “activity,”

EGFR del19, sequence (P00533 other isoform, or with tags, fused parts or gaps del 1-668/del 746-750 limits assumed): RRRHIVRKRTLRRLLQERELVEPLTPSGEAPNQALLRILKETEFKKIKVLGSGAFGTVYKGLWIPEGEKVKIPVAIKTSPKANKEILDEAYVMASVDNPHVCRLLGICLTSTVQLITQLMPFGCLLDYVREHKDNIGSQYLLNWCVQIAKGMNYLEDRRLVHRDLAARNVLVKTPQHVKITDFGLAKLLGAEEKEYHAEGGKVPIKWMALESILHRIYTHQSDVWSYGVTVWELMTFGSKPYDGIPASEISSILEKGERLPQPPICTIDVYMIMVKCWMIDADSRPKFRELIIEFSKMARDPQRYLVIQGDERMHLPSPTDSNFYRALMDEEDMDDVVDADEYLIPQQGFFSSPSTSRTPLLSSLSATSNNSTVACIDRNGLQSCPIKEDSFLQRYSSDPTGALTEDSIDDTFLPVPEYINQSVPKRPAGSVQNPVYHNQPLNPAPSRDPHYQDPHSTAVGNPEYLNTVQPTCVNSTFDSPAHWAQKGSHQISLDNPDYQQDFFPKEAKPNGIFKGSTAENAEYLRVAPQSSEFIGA
EGFR A763_Y764insFHEA, sequence (P00533 other isoform, or with tags, fused parts or gaps del 1-694/ins FHEA behind 763 limits assumed): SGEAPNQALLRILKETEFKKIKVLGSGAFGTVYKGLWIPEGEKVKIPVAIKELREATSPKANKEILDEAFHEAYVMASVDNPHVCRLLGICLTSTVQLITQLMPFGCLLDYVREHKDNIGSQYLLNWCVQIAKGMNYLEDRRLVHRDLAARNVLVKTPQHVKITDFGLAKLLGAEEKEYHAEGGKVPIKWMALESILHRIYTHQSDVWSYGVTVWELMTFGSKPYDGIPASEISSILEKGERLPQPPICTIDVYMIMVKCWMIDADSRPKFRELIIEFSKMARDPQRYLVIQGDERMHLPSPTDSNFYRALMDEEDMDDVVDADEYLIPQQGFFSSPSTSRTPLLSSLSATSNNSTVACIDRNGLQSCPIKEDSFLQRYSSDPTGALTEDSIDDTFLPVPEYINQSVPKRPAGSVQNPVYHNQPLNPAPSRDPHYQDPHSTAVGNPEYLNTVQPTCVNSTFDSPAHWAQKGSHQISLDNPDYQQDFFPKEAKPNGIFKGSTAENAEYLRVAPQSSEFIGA
HER2 A775_G776insYVMA, sequence (P04626 other isoform, or with tags, fused parts or gaps del 1-675/ins YVMA behind 775 limits assumed): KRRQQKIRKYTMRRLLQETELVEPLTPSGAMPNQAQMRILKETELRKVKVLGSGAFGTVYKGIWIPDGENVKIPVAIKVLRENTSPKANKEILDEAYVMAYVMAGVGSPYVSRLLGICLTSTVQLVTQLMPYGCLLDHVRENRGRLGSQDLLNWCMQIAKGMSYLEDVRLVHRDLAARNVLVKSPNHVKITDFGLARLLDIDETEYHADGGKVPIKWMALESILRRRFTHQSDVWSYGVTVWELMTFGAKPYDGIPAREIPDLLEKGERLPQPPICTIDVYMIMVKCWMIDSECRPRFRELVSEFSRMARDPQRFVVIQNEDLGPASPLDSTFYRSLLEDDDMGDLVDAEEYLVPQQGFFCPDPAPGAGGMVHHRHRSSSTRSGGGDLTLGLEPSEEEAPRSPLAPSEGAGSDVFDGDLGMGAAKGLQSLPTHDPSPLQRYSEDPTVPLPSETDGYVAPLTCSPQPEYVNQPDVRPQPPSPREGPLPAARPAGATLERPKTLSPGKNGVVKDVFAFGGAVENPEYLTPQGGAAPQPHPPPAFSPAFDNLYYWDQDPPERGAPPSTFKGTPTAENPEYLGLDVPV

Row | SMILES | IC50 (EGFR A763_Y764insFHEA) | IC50 (EGFR del19) | IC50 (HER2 A775_G776insYVMA)
1 | C=CC(=O)Nc1cc(Nc2ncc(F)c(Nc3ccccc3NS(=O)(=O)c3ccc(C)cc3)n2)c(OC)cc1N(C)CCN(C)C [Example 15, N-(2-((2-(dimethylamino)ethyl)(methyl)amino)-5-((5-fluoro-4-((2-((4-methylphenyl)sulfonamido)phenyl)amino)pyrimidin-2-yl)amino)-4-methoxyphenyl)acrylamide] | 10 nM | 10 nM | 1200 nM
2 | C=CC(=O)Nc1cc(Nc2ncc(C)c(Nc3ccccc3NS(=O)(=O)CCC)n2)c(OC)cc1N(C)CCN(C)C [Example 18, N-(2-((2-(dimethylamino)ethyl)(methyl)amino)-4-methoxy-5-((5-methyl-4-((2-(propylsulfonamido)phenyl)amino)pyrimidin-2-yl)amino)phenyl)acrylamide] | 7 nM | < 1 nM | 110 nM
3 | C=CC(=O)Nc1cc(Nc2ncc(Cl)c(Nc3cccc4c3N(S(=O)(=O)CC)CC4)n2)c(OC)cc1N(C)CCN1CCCC1 [Example 75, N-(5-((5-chloro-4-((1-(ethylsulfonyl)indolin-7-yl)amino)pyrimidin-2-yl)amino)-4-methoxy-2-(methyl(2-(pyrrolidin-1-yl)ethyl)amino)phenyl)acrylamide] | < 1 nM | < 1 nM | 3 nM
4 | C=CC(=O)Nc1cc(Nc2ncc(Cl)c(Nc3ccc(C)c(C)c3NS(C)(=O)=O)n2)c(OC)cc1N(C)CCN(C)C [Example 44, N-(5-((5-chloro-4-((3,4-dimethyl-2-(methylsulfonamido)phenyl)amino)pyrimidin-2-yl)amino)-2-((2-(dimethylamino)ethyl)(methyl)amino)-4-methoxyphenyl)acrylamide] | < 1 nM | < 1 nM | 6 nM
5 | C=CC(=O)Nc1cc(Nc2ncc(Cl)c(Nc3cccc4ccn(S(C)(=O)=O)c34)n2)c(OC)cc1N(C)CCN(C)C [Example 67, N-(5-((5-chloro-4-((1-(methylsulfonyl)-1H-indol-7-yl)amino)pyrimidin-2-yl)amino)-2-((2-(dimethylamino)ethyl)(methyl)amino)-4-methoxyphenyl)acrylamide] | < 1 nM | < 1 nM | 81 nM
6 | C=CC(=O)Nc1cc(Nc2ncc(Cl)c(Nc3ccccc3N3CCCCS3(=O)=O)n2)c(OC)cc1N(C)CCN(C)C [Example 71, N-(5-((5-chloro-4-((2-(1,1-dioxido-1,2-thiazinan-2-yl)phenyl)amino)pyrimidin-2-yl)amino)-2-((2-(dimethylamino)ethyl)(methyl)amino)-4-methoxyphenyl)acrylamide] | 5 nM | < 1 nM | 61 nM
7 | C=CC(=O)Nc1cc(Nc2ncc(C(=O)OC(C)C)c(Nc3cccc4c3N(S(C)(=O)=O)CCC4)n2)c(OC)cc1N(C)CCN(C)C [Example 52, isopropyl 2-((5-acrylamido-4-((2-(dimethylamino)ethyl)(methyl)amino)-2-methoxyphenyl)amino)-4-((1-(methylsulfonyl)-1,2,3,4-tetrahydroquinolin-8-yl)amino)pyrimidin-5-carboxylate] | < 1 nM | < 1 nM | 4 nM
8 | C=CC(=O)Nc1cc(Nc2ncc(Cl)c(Nc3cccc4c3N(S(C)(=O)=O)CC4)n2)c(OC)cc1OCCN1CCOCC1 [Example 77, N-(5-((5-chloro-4-((1-(methylsulfonyl)indolin-7-yl)amino)pyrimidin-2-yl)amino)-4-methoxy-2-(2-morpholinoethoxy)phenyl)acrylamide] | < 1 nM | < 1 nM | 2 nM
9 | C=CC(=O)Nc1cc(Nc2ncc(C)c(Nc3ccccc3NS(=O)(=O)c3ccccc3)n2)c(OC)cc1N(C)CCN(C)C [Example 20, N-(2-((2-(dimethylamino)ethyl)(methyl)amino)-4-methoxy-5-((5-methyl-4-((2-(phenylsulfonamido)phenyl)amino)pyrimidin-2-yl)amino)phenyl)acrylamide] | 6 nM | 2 nM | 370 nM
10 | COc1cc(N(C)CCN(C)C)c(NC(=O)/C=C/CN(C)C)cc1Nc1ncc(Cl)c(Nc2ccccc2NS(C)(=O)=O)n1 [Example 28, (E)-N-(5-((5-chloro-4-((2-(methylsulfonamido)phenyl)amino)pyrimidin-2-yl)amino)-2-((2-(dimethylamino)ethyl)(methyl)amino)-4-methoxyphenyl)-4-(dimethylamino)buten-2-amide] | 8 nM | < 1 nM | 70 nM

Further lines, results first:

Row | IC50 (EGFR A763_Y764insFHEA) | IC50 (EGFR del19) | IC50 (HER2 A775_G776insYVMA) | SMILES
11 | 3 nM | < 1 nM | 30 nM | C=CC(=O)Nc1cc(Nc2ncc(Cl)c(Nc3ccccc3NS(C)(=O)=O)n2)c(OC)cc1N(C)CCN1CCCCC1 [Example 23, N-(5-((5-chloro-4-((2-(methylsulfonamido)phenyl)amino)pyrimidin-2-yl)amino)-4-methoxy-2-(methyl(2-(piperidin-1-yl)ethyl)amino)phenyl)acrylamide]
12 | 20 nM | 10 nM | 920 nM | C=CC(=O)Nc1cc(Nc2nccc(Nc3ccccc3NS(=O)(=O)CCC)n2)c(OC)cc1N(C)CCN(C)C [Example 8, N-(2-((2-(dimethylamino)ethyl)(methyl)amino)-4-methoxy-5-((4-((2-(propylsulfonamido)phenyl)amino)pyrimidin-2-yl)amino)phenyl)acrylamide]
13 | 3 nM | < 1 nM | 34 nM | C=CC(=O)Nc1cc(Nc2ncc(C)c(Nc3ccccc3NS(=O)(=O)CC)n2)c(OC)cc1N(C)CCN(C)C [Example 19, N-(2-((2-(dimethylamino)ethyl)(methyl)amino)-5-((4-((2-(ethylsulfonamido)phenyl)amino)-5-methylpyrimidin-2-yl)amino)-4-methoxyphenyl)acrylamide]
14 | < 1 nM | < 1 nM | < 1 nM | C=CC(=O)Nc1cc(Nc2ncc(Cl)c(Nc3cccc4c3N(S(=O)(=O)CC)CC4)n2)c(OC)cc1N(C)CCN1CCC1 [Example 81, N-(2-((2-(azetidin-1-yl)ethyl)(methyl)amino)-5-((5-chloro-4-((1-(ethylsulfonyl)indolin-7-yl)amino)pyrimidin-2-yl)amino)-4-methoxyphenyl)acrylamide]
15 | 20 nM | 10 nM | 1100 nM | C=CC(=O)Nc1cc(Nc2ncc(C)c(Nc3ccccc3NS(=O)(=O)c3ccc(C)cc3)n2)c(OC)cc1N(C)CCN(C)C [Example 17, N-(2-((2-(dimethylamino)ethyl)(methyl)amino)-4-methoxy-5-((5-methyl-4-((2-((4-methylphenyl)sulfonamido)phenyl)amino)pyrimidin-2-yl)amino)phenyl)acrylamide]
16 | 4 nM | < 1 nM | 69 nM | C=CC(=O)Nc1cc(Nc2ncc(F)c(Nc3ccccc3NS(=O)(=O)CC)n2)c(OC)cc1N(C)CCN(C)C [Example 12, N-(2-((2-(dimethylamino)ethyl)(methyl)amino)-5-((4-((2-(ethylsulfonamido)phenyl)amino)-5-fluoropyrimidin-2-yl)amino)-4-methoxyphenyl)acrylamide]
17 | 2 nM | 1 nM | 410 nM | C=CC(=O)Nc1cc(Nc2ncc(F)c(Nc3ccccc3NS(=O)(=O)c3ccccc3)n2)c(OC)cc1N(C)CCN(C)C [Example 14, N-(2-((2-(dimethylamino)ethyl)(methyl)amino)-5-((5-fluoro-4-((2-(phenylsulfonamido)phenyl)amino)pyrimidin-2-yl)amino)-4-methoxyphenyl)acrylamide]
